Laboratory results reported in patent US11427610B2, “Cyclic dinucleotides as anticancer agents” (BRISTOL-MYERS SQUIBB COMPANY, priority 2017, dated 2022).
Where two headings read alike, the source gives them in different places.

Columns and labels:
[1] = target: T1, STING AQ: His-TVMV-S-hSTING(155-341)-G230A-R293Q (Homo sapiens, UniProt Q86WV6, G230A/H232R/R293Q); assay: STING HTRF binding assay, STING AQ; conditions: 20 nM His-tagged STING cytoplasmic domain, 40 nM fluorescein-labeled cGAMP analog probe, one hour; read-out: HTRF Binding Assays IC50 (μM) STING AQ
T1 construct: His-TVMV-S-hSTING(155-341)-G230A-R293Q
T1 sequence (Q86WV6 with tags, fused parts or gaps G230A/H232R/R293Q): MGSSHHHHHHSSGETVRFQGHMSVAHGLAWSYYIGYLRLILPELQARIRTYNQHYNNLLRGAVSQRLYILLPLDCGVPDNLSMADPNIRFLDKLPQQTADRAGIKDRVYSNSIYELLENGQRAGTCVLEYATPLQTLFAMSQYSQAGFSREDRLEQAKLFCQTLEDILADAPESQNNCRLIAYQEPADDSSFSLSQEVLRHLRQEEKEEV
Protocol: (§1) A time resolved FRET-based competition binding assay was used to assess test article binding to STING WT and STING AQ. His-tagged STING cytoplasmic domain (WT or AQ) at a concentration of 20 nM was incubated with 2.5 nM Tb-labeled anti-His antibody, test compound, and fluorescein-labeled cGAMP analog probe (BioLog cat. no. C195) at a concentration of 200 nM (STING WT) or 40 nM (STING AQ) in PBS containing 0.005% Tween-20 and 0.1% BSA for one hour. Fluorescence at 495 nm and 520 nm was measured using an EnVision microplate reader to quantify FRET between Tb-labeled anti-His antibody and fluorescein-labeled probe. Background was defined as the signal obtained in the absence of STING protein, and background subtracted FRET ratios were normalized to the maximum signal obtained in the absence of test compound. These values were converted to a percent inhibition. Percent inhibition was determined for test compounds at 11 concentrations. The IC50, defined as the concentration of competing test compound needed to reduce specific binding of the probe by 50%, was calculated using the 4 parameter logistic equation to fit the data

NFkB = assay: STING THP1 reporter assay, NF-κB pathway (SEAP); format: cell-based; conditions: THP1-Dual cells, 10% human plasma, 100% activation = 100 μM cGAMP, SEAP readout, read-out: THP1 Reporter Assays EC50 (μM) NFkB
Source text: (§2) THP1-Dual™ cells were derived from the human THP-1 monocyte cell line by stable integration of two inducible reporter constructs. To this end, THP1-Dual™ cells allow the simultaneous study of the NF-κB pathway, by monitoring the activity of SEAP, and the IRF pathway by assessing the activity of a secreted luciferase (Lucia). Both reporter proteins are readily measurable in the cell culture supernatant when using QUANTI-Blue™, a SEAP detection reagent, and QUANTI-Luc™, a luciferase detection reagent.
(§3) THP1-Dual™ cells induce the activation of NF-κB in response to STING agonists. They also trigger the IRF pathway upon stimulation with STING agonists, such as cGAMP. Here, the THP-1-Dual cells were used to assess STING binders for function on the cellular level.
(§4) Serial dilutions of compounds in DMSO were added to low volume 384 well plates at 100 nl/well using an ECHO acoustic dispenser (Labcyte, model 550) to achieve final starting concentration of 100 μM in cell suspension. THP-1 Dual™ STING reporter cells (Invivogen, Dual cells cat #THPD-nfis) were added to the plates with compounds at 15,000 cells in 10 μL per well in RPMI media (Gibco, cat #11875) containing 10% human plasma in a low volume 384-well black wall clear bottom tissue culture plate (Corning, cat #3542) for SEAP assay and low volume solid white plate (Corning, cat #3826) for luciferase assay. One column of the plate was reserved for treatment with cGAMP at 100 μM for 100% activation calculation and one column for no treatment (DMSO only) for baseline activation. Plates were then incubated in 37° C. incubator at 5% CO2 for 20 hours.
(§5) In the SEAP assay, 5 μl of 2× QuantiBlue (Invivogen, cat #Rep-qb2) is added to 384 well black plates seeded with THP1 cells and incubated at 37° C. for 2 hours. Plates were read on the Envision (Perkin Elmer) at 620 nm wavelength (OD620). In the luciferase assay, 5 μl of Quantiluc (Invivogen, Rep-qlc2) is added to white 384 well plates seeded with THP1 cells and read at 5 minutes on the Envision (Perkin Elmer) using a luminescence protocol (RLU). For both cell lines, 100% activation was determined by value (RLU) of THP-1 Dual STING cells stimulated with 100 μM cGAMP (Invivogen, cat #TLRL-NACGA23-5).

IRF3 = assay: STING THP1 reporter assay, IRF pathway (Lucia luciferase); format: cell-based; conditions: THP1-Dual cells, 10% human plasma, 100% activation = 100 μM cGAMP, luciferase readout, read-out: THP1 Reporter Assays EC50 (μM) IRF3
Source text: as §2, §3, §4, §5

[2] = target: T2, STING WT: His-TVMV-S-hSTING(155-341)-H232R (Homo sapiens, UniProt Q86WV6, H232R); assay: STING HTRF binding assay, STING WT; conditions: 20 nM His-tagged STING cytoplasmic domain, 200 nM fluorescein-labeled cGAMP analog probe, one hour; read-out: HTRF Binding Assays IC50 (μM) STING WT
T2 construct: His-TVMV-S-hSTING(155-341)-H232R
T2 sequence (Q86WV6 with tags, fused parts or gaps H232R): as the sequence (Q86WV6 with tags, fused parts or gaps G230A/H232R/R293Q) above, with A99G, Q162R counted along it
Protocol: as §1

EC50 (NFkB; Homo sapiens, THP-1, 20 h) [µM]	EC50 (IRF3; Homo sapiens, THP-1, 20 h) [µM]	Compound	IC50 [1] [µM]	EC50 (NFkB; 20 hours) [µM]	EC50 (IRF3; 20 hours) [µM]	IC50 [2] [µM]
–	–	Nc1ncnc2c1ncn2[C@@H]1O[C@@H]2COP(O)(=S)O[C@@H]3[C@H](O)[C@@H](COP(O)(=S)O[C@H]2[C@H]1F)O[C@H]3C#Cc1cccnc1 (single isomer, unassigned) [Example 3-4]	1.4	> 100	> 100	29.6
–	–	Nc1ncnc2c1ncn2[C@@H]1O[C@@H]2COP(O)(=S)O[C@@H]3[C@H](O)[C@@H](COP(O)(=S)O[C@H]2[C@H]1F)O[C@H]3C#Cc1cccnc1 (single isomer, unassigned) [Example 3-3]	0.04	8.1	6	1.1
–	–	Nc1ncnc2c1ncn2[C@@H]1O[C@@H]2COP(O)(=S)O[C@@H]3[C@H](O)[C@@H](COP(O)(=S)O[C@H]2[C@H]1F)O[C@H]3C#Cc1ccccc1 (single isomer, unassigned) [Example 2-4]	17	–	> 100	> 100
> 100	> 100	C#C[C@@H]1O[C@@H]2COP(O)(=S)O[C@H]3[C@@H](F)[C@H](n4cnc5c(N)ncnc54)O[C@@H]3COP(O)(=S)O[C@@H]1[C@@H]2O (single isomer, unassigned) [Example 1-3]	1.9	–	–	55.3
–	–	Nc1ncnc2c1ncn2[C@@H]1O[C@@H]2COP(O)(=S)O[C@@H]3[C@H](O)[C@@H](COP(O)(=S)O[C@H]2[C@H]1F)O[C@H]3C#Cc1cccnc1 (single isomer, unassigned) [Example 3-2]	0.2	> 100	> 100	3.4
–	–	Nc1ncnc2c1ncn2[C@@H]1O[C@@H]2COP(O)(=S)O[C@@H]3[C@H](O)[C@@H](COP(O)(=S)O[C@H]2[C@H]1F)O[C@H]3C#Cc1cccnc1 (single isomer, unassigned) [Example 3-1]	1.3	> 100	> 100	67.4
–	–	Nc1ncnc2c1ncn2[C@@H]1O[C@@H]2COP(O)(=S)O[C@@H]3[C@H](O)[C@@H](COP(O)(=S)O[C@H]2[C@H]1F)O[C@H]3C#Cc1ccccc1 (single isomer, unassigned) [Example 2-1]	19.4	–	> 100	> 100
–	–	C#C[C@@H]1O[C@@H]2COP(=O)(S)O[C@H]3[C@@H](F)[C@H](n4cnc5c(N)ncnc54)O[C@@H]3COP(=O)(S)O[C@@H]1[C@@H]2O (single isomer, unassigned) [Example 1-2]	0.03	42	24	1.7
–	–	Nc1ncnc2c1ncn2[C@@H]1O[C@@H]2COP(O)(=S)O[C@@H]3[C@H](O)[C@@H](COP(O)(=S)O[C@H]2[C@H]1F)O[C@H]3C#Cc1ccccc1 (single isomer, unassigned) [Example 2-2]	0.5	–	> 100	9.6
37	23	C#C[C@@H]1O[C@@H]2COP(=O)(S)O[C@H]3[C@@H](F)[C@H](n4cnc5c(N)ncnc54)O[C@@H]3COP(=O)(S)O[C@@H]1[C@@H]2O (single isomer, unassigned) [Example 1-1]	0.06	–	–	1.4

Compound	EC50 (NFkB; Homo sapiens, THP-1, 20 h) [µM]	EC50 (IRF3; Homo sapiens, THP-1, 20 h) [µM]	IC50 [1] [µM]	EC50 (NFkB; 20 hours) [µM]	EC50 (IRF3; 20 hours) [µM]	IC50 [2] [µM]
Nc1ncnc2c1ncn2[C@@H]1O[C@@H]2COP(O)(=S)O[C@@H]3[C@H](O)[C@@H](COP(O)(=S)O[C@H]2[C@H]1F)O[C@H]3C#Cc1ccccc1 (single isomer, unassigned) [Example 2-3]	> 100	> 100	0.7	–	–	20.5
